According to the NIST ThermoML archive (doi:10.1021/acs.jced.9b00248):

Experiment: mn = molality of the nth substance listed, in mol/kg
Conditions: Liquid; for viscosity: Vibrating wire viscometry; for mass density: Vibrating tube method

[Cl-].[Na+] [sodium chloride] + O
Conditions | mass density [kg/m3] | viscosity [mPa·s]
274.65 K, 1400 kPa, m1 = 0.77 | – | 1.748
274.65 K, 15300 kPa, m1 = 0.77 | – | 1.718
274.65 K, 30200 kPa, m1 = 0.77 | – | 1.704
274.65 K, 50100 kPa, m1 = 0.77 | – | 1.7
274.83 K, 15210 kPa, m1 = 0.77 | 1039.38 | –
274.83 K, 30120 kPa, m1 = 0.77 | 1045.95 | –
274.83 K, 49950 kPa, m1 = 0.77 | 1054.41 | –
274.83 K, 69810 kPa, m1 = 0.77 | 1062.53 | –
274.83 K, 99820 kPa, m1 = 0.77 | 1074.13 | –
274.95 K, 1340 kPa, m1 = 2.5 | 1098.36 | –
274.95 K, 15260 kPa, m1 = 2.5 | 1103.81 | –
274.95 K, 30190 kPa, m1 = 2.5 | 1109.5 | –
274.95 K, 50040 kPa, m1 = 2.5 | 1116.83 | –
274.95 K, 69930 kPa, m1 = 2.5 | 1123.92 | –
274.95 K, 99990 kPa, m1 = 2.5 | 1134.12 | –
296.19 K, 1330 kPa, m1 = 2.5 | 1090.47 | –
296.19 K, 15240 kPa, m1 = 2.5 | 1095.73 | –
296.19 K, 30160 kPa, m1 = 2.5 | 1101.16 | –
296.19 K, 50020 kPa, m1 = 2.5 | 1108.18 | –
296.19 K, 69880 kPa, m1 = 2.5 | 1115.02 | –
296.19 K, 99980 kPa, m1 = 2.5 | 1124.82 | –
296.22 K, 1380 kPa, m1 = 0.77 | 1028.25 | –
296.22 K, 15220 kPa, m1 = 0.77 | 1034.12 | –
296.22 K, 49930 kPa, m1 = 0.77 | 1048.04 | –
296.22 K, 69810 kPa, m1 = 0.77 | 1055.61 | –
296.22 K, 99840 kPa, m1 = 0.77 | 1066.51 | –
323.3 K, 1380 kPa, m1 = 2.5 | 1077.94 | –
323.3 K, 15290 kPa, m1 = 2.5 | 1083.2 | –
323.3 K, 30220 kPa, m1 = 2.5 | 1088.58 | –
323.3 K, 50060 kPa, m1 = 2.5 | 1095.53 | –
323.3 K, 69950 kPa, m1 = 2.5 | 1102.24 | –
323.3 K, 100010 kPa, m1 = 2.5 | 1111.99 | –
323.33 K, 1340 kPa, m1 = 0.77 | 1017.8 | –
323.33 K, 15260 kPa, m1 = 0.77 | 1023.47 | –
323.33 K, 30160 kPa, m1 = 0.77 | 1029.36 | –
323.33 K, 69840 kPa, m1 = 0.77 | 1044.3 | –
323.33 K, 99890 kPa, m1 = 0.77 | 1054.9 | –
348.21 K, 1360 kPa, m1 = 2.5 | 1064.12 | –
348.21 K, 1380 kPa, m1 = 0.77 | 1004.37 | –
348.21 K, 15260 kPa, m1 = 0.77 | 1010.15 | –
348.21 K, 15270 kPa, m1 = 2.5 | 1069.47 | –
348.21 K, 30180 kPa, m1 = 0.77 | 1016.18 | –
348.21 K, 30200 kPa, m1 = 2.5 | 1075.01 | –
348.21 K, 50000 kPa, m1 = 0.77 | 1023.83 | –
348.21 K, 50060 kPa, m1 = 2.5 | 1082.15 | –
348.21 K, 69880 kPa, m1 = 0.77 | 1031.26 | –
348.21 K, 69960 kPa, m1 = 2.5 | 1089.02 | –
348.21 K, 99920 kPa, m1 = 0.77 | 1041.89 | –
348.21 K, 100020 kPa, m1 = 2.5 | 1098.91 | –
348.34 K, 1400 kPa, m1 = 0.77 | – | 0.412
348.34 K, 15300 kPa, m1 = 0.77 | – | 0.416
348.34 K, 30200 kPa, m1 = 0.77 | – | 0.421
348.34 K, 50000 kPa, m1 = 0.77 | – | 0.429
348.34 K, 69900 kPa, m1 = 0.77 | – | 0.433
373.22 K, 1380 kPa, m1 = 2.5 | 1047.69 | –
373.22 K, 15310 kPa, m1 = 2.5 | 1053.49 | –
373.22 K, 30230 kPa, m1 = 2.5 | 1059.36 | –
373.22 K, 50090 kPa, m1 = 2.5 | 1066.79 | –
373.22 K, 69960 kPa, m1 = 2.5 | 1073.94 | –
373.22 K, 100040 kPa, m1 = 2.5 | 1084.13 | –
373.25 K, 1400 kPa, m1 = 0.77 | 988.09 | –
373.25 K, 15310 kPa, m1 = 0.77 | 994.18 | –
373.25 K, 30220 kPa, m1 = 0.77 | 1000.44 | –
373.25 K, 50060 kPa, m1 = 0.77 | 1008.5 | –
373.25 K, 69930 kPa, m1 = 0.77 | 1016.2 | –
373.25 K, 99960 kPa, m1 = 0.77 | 1027.15 | –
373.31 K, 1400 kPa, m1 = 0.77 | – | 0.31
373.31 K, 30200 kPa, m1 = 0.77 | – | 0.318
373.31 K, 50000 kPa, m1 = 0.77 | – | 0.323
373.31 K, 69900 kPa, m1 = 0.77 | – | 0.329
373.31 K, 100000 kPa, m1 = 0.77 | – | 0.338
398.18 K, 1400 kPa, m1 = 0.77 | – | 0.247
398.18 K, 15300 kPa, m1 = 0.77 | – | 0.251
398.18 K, 30200 kPa, m1 = 0.77 | – | 0.256
398.18 K, 50100 kPa, m1 = 0.77 | – | 0.26
398.18 K, 70000 kPa, m1 = 0.77 | – | 0.265
398.18 K, 100000 kPa, m1 = 0.77 | – | 0.273
398.29 K, 1390 kPa, m1 = 2.5 | 1029.58 | –
398.29 K, 15300 kPa, m1 = 2.5 | 1035.58 | –
398.29 K, 30230 kPa, m1 = 2.5 | 1041.92 | –
398.29 K, 50080 kPa, m1 = 2.5 | 1049.89 | –
398.29 K, 69980 kPa, m1 = 2.5 | 1057.41 | –
398.29 K, 100050 kPa, m1 = 2.5 | 1068.15 | –
398.81 K, 1460 kPa, m1 = 0.77 | 969.16 | –
398.81 K, 15370 kPa, m1 = 0.77 | 975.7 | –
398.81 K, 30260 kPa, m1 = 0.77 | 982.49 | –
398.81 K, 50080 kPa, m1 = 0.77 | 991.06 | –
398.81 K, 69950 kPa, m1 = 0.77 | 999.13 | –
398.81 K, 99990 kPa, m1 = 0.77 | 1010.69 | –
423.31 K, 15300 kPa, m1 = 0.77 | – | 0.206
423.31 K, 30200 kPa, m1 = 0.77 | – | 0.212
423.31 K, 50100 kPa, m1 = 0.77 | – | 0.216
423.31 K, 70000 kPa, m1 = 0.77 | – | 0.22
423.31 K, 100000 kPa, m1 = 0.77 | – | 0.228
423.62 K, 1410 kPa, m1 = 2.5 | 1009.24 | –
423.62 K, 15330 kPa, m1 = 2.5 | 1015.81 | –
423.62 K, 30250 kPa, m1 = 2.5 | 1022.75 | –
423.62 K, 50100 kPa, m1 = 2.5 | 1031.25 | –
423.62 K, 69990 kPa, m1 = 2.5 | 1039.38 | –
423.62 K, 100050 kPa, m1 = 2.5 | 1050.77 | –
423.73 K, 1450 kPa, m1 = 0.77 | 947.66 | –
423.73 K, 15370 kPa, m1 = 0.77 | 954.86 | –
423.73 K, 30270 kPa, m1 = 0.77 | 962.29 | –
423.73 K, 50110 kPa, m1 = 0.77 | 971.57 | –
423.73 K, 69960 kPa, m1 = 0.77 | 980.32 | –
423.73 K, 100000 kPa, m1 = 0.77 | 992.59 | –
448.27 K, 30300 kPa, m1 = 0.77 | – | 0.181
448.27 K, 50100 kPa, m1 = 0.77 | – | 0.185
448.27 K, 70000 kPa, m1 = 0.77 | – | 0.19
448.27 K, 100000 kPa, m1 = 0.77 | – | 0.197
448.85 K, 1410 kPa, m1 = 2.5 | 987.39 | –
448.85 K, 15330 kPa, m1 = 2.5 | 994.66 | –
448.85 K, 30260 kPa, m1 = 2.5 | 1002.41 | –
448.85 K, 50110 kPa, m1 = 2.5 | 1011.56 | –
448.97 K, 1460 kPa, m1 = 0.77 | 923.83 | –
448.97 K, 15380 kPa, m1 = 0.77 | 932.02 | –
448.97 K, 30290 kPa, m1 = 0.77 | 940.31 | –
448.97 K, 50120 kPa, m1 = 0.77 | 950.53 | –
448.97 K, 69980 kPa, m1 = 0.77 | 960.05 | –
448.97 K, 100000 kPa, m1 = 0.77 | 973.43 | –
